Non-standard residues stand in square brackets, D forms with d. Residues, ends and D or L forms follow the SMILES beside them. No end group written: not given here. *: point of attachment. Phe(4-Cl) = N[C@@H](Cc1ccc(Cl)cc1)C(=O)O; Agmatine = N=C(N)NCCCCN*; Isobutyryl = CC(C)C(=O)*; Nle = CCCC[C@H](N)C(=O)O; Abu = CC[C@H](N)C(=O)O; X1 = O=C(CCBr)*

The target of assay [1] is T1, rat pituitary GH-RH receptors (Rattus norvegicus, UniProt Q02644).
T1 construct: from tissue; host or cells: rat anterior pituitary (male Sprague-Dawley), crude membranes
T1 sequence (Q02644 23-464): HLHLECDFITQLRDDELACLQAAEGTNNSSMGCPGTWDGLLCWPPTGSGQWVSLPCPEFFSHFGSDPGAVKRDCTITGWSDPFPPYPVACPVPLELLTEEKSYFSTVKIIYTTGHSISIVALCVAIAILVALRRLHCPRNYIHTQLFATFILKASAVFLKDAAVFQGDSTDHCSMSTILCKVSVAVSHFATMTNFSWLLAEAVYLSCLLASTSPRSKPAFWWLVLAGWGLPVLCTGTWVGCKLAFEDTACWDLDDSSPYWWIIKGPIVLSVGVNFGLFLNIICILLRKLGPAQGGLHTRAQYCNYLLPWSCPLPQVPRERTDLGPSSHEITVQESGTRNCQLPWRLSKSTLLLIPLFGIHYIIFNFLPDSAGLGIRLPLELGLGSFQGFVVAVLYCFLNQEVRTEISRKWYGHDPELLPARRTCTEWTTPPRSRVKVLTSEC
In words: GH-RH binding assay, competitive binding on rat anterior pituitary membrane homogenates. Conditions: for Ki: competition with labelled [His1,Nle27]hGH-RH(1-32)NH2. The method, then:
GH-RH Binding Assay. A sensitive radioreceptor binding assay was developed to determine the binding characteristics of the antagonists of GH-RH (G. Halmos, A. V. Schally et al., Receptor 3, 87-97, 1993), hereby incorporated by reference. The assay is based on binding of labelled [His^1,Nle^27 ]hGH-RH(1-32)NH2 to rat anterior pituitary membrane homogenates. Iodinated derivatives of [His^1,Nle^27 ]hGH-RH(1-32)NH2 are prepared by the chloramine-T method (F. C. Greenwood et al., Biochemistry 89:114-123, 1963), hereby incorporated by reference. Pituitaries from male Sprague-Dawley rats (250-300 g) are used to prepare crude membranes. For saturation binding analyses, membrane homogenates are incubated with at least 6 concentrations of [His^1,^25 I-Tyr^10,Nle^27 ]hGH-RH(1-32)NH2, ranging from 0.005 to 0.35 nM in the presence or absence of excess unlabelled peptide (1 μM). The pellet is counted for radioactivity in a y-counter. The affinities of the antagonist peptides tested to rat pituitary GH-RH receptors are determined in competitive binding experiments. The final binding affinities are estimated by Ki (dissociation constant of the inhibitor-receptor complex) and are determined by the Ligand PC computer program of Munson and Rodbard as modified by McPherson. Relative affinities compared to [Ac-Tyr^1,D-Arg^2 ]hGH-RH(1-29)NH2, the Standard antagonist, are calculated as the ratio of Ki of the tested GH-RH antagonist to the Ki of the Standard antagonist.

For assay [2], the system named is hGH-RH(1-29)NH2 induced GH release. Nature of the assay: Superfused rat pituitary system: inhibition of hGH-RH(1-29)NH2 induced GH release. Conditions: for Inhibition of GH release (%) 0 min: 0 min response; for Inhibition of GH release (%) 30 min: 30 min response; for Inhibition of GH release (%) 60 min: 60 min response. Type of assay: cell-based. As to the method:
Superfused Rat Pituitary System. The analogues were tested in vitro in a test described earlier (S. Vigh and A. V. Schally, Peptides 5:241-[…], 1984) with modification ([…] and […]. 90:2146-2149, 1993). Briefly, the cells are preincubated with peptides for 9 minutes (3 mL) at various concentrations. Immediately after the incubation, 1 nM hGH-RH(1-29)NH2 is administered for 3 minutes (1 mL) [0 minute response]. To check the duration of the antagonistic effect of the analogue, 1 nM hGH-RH(1-29)NH2 is applied 30, 60, 90, and 120 minutes later for 3 minutes [30, 60, 90, 120 min responses]. Net integral values of the GH responses are evaluated. GH responses are compared to and expressed as percent of the original GH response induced by 1 nM GH-RH(1-29)NH2. The effect of the new antagonists are compared to that of [Ac-[…] ]hGH-RH(1-29)NH2, the "Standard antagonist". Growth Hormone Radio-immunoassay. Rat GH levels in aliquots of undiluted and diluted superfusion samples were measured by double-antibody radioimmunoassay using materials supplied by the National Hormone and Pituitary Program, Baltimore, Md. The results of RIA were analyzed with a computer program developed in our institute (V. Csernus and A. V. Schally, Harwood Academic (Greenstein, B. C. ed., London, pp. 71-109, 1991), hereby incorporated by reference. Inter-assay variation was less than 15% and intra-assay variation was less than 10%.

Assay [3] deals with GH release. Conditions: cited from earlier work; for bioactivity (in words): compared with hGH-RH(1-29)NH2.

What is called Ki is a measure of affinity in units of concentration, obtained from inhibition or displacement. Molecule `CCCC[C@H](NC(=O)[C@@H](NC(=O)[C@H](CC(=O)O)NC(=O)[C@H](CCC(N)=O)NC(=O)[C@H](CC(C)C)NC(=O)[C@H](CC(C)C)NC(=O)[C@H](CCCCN)NC(=O)[C@H](CCCNC(=N)N)NC(=O)[C@H](C)NC(=O)[C@H](CO)NC(=O)[C@H](CC(C)C)NC(=O)[C@H](CCC(N)=O)NC(=O)[C@H](CC)NC(=O)[C@H](CC(C)C)NC(=O)[C@@H](NC(=O)[C@H](C)NC(=O)[C@H](CCCNC(=N)N)NC(=O)[C@H](Cc1ccc(O)cc1)NC(=O)[C@H](CO)NC(=O)[C@H](CC(N)=O)NC(=O)[C@@H](NC(=O)[C@H](Cc1ccc(Cl)cc1)NC(=O)[C@@H](NC(=O)[C@H](C)NC(=O)[C@H](CC(=O)O)NC(=O)[C@@H](CCCNC(=N)N)NC(=O)[C@H](Cc1ccc(O)cc1)NC(=O)C(C)C)[C@@H](C)CC)[C@@H](C)O)C(C)C)[C@@H](C)CC)C(=O)N[C@@H](CO)C(=O)N[C@@H](CCCNC(=N)N)C(N)=O` [Peptide 15, [Ibu^0,D-Arg^2,Phe(pCl)^6,Ala^12,Abu^15,Nle^27]hGH-RH(1-29)NH2] (Isobutyryl-Y[dR]DAI[Phe(4-Cl)]TNSYRAVL[Abu]QLSARKLLQDI[Nle]SR-NH2) had a Ki in assay [1] of 0.73 ± 0.05 nM.
The same measure, in the same setting: the figure for `CCCC[C@H](NC(=O)[C@@H](NC(=O)[C@H](CC(=O)O)NC(=O)[C@H](CCC(N)=O)NC(=O)[C@H](CC(C)C)NC(=O)[C@H](CC(C)C)NC(=O)[C@H](CCCCN)NC(=O)[C@H](CCCNC(=N)N)NC(=O)[C@H](C)NC(=O)[C@H](CO)NC(=O)[C@H](CC(C)C)NC(=O)[C@H](CCC(N)=O)NC(=O)[C@H](CC)NC(=O)[C@H](CC(C)C)NC(=O)[C@@H](NC(=O)[C@H](CCCCN)NC(=O)[C@H](CCCNC(=N)N)NC(=O)[C@H](Cc1ccc(O)cc1)NC(=O)[C@H](CO)NC(=O)[C@H](CC(N)=O)NC(=O)[C@@H](NC(=O)[C@H](Cc1ccc(Cl)cc1)NC(=O)[C@@H](NC(=O)[C@H](C)NC(=O)[C@H](CC(=O)O)NC(=O)[C@@H](CCCNC(=N)N)NC(=O)[C@H](Cc1ccc(O)cc1)NC(=O)C(C)C)[C@@H](C)CC)[C@@H](C)O)C(C)C)[C@@H](C)CC)C(=O)N[C@@H](CO)C(=O)NCCCCNC(=N)N` [Peptide 19, Ibu^0,D-Arg^2, Phe(pCl)^6,Abu^15,Nle^27]hGH-RH(1-28)Agm] (Isobutyryl-Y[dR]DAI[Phe(4-Cl)]TNSYRKVL[Abu]QLSARKLLQDI[Nle]S-Agmatine) is 0.12 ± 0.04 nM.
Take `CCCC[C@H](NC(=O)[C@@H](NC(=O)[C@H](CC(=O)O)NC(=O)[C@H](CCC(N)=O)NC(=O)[C@H](CC(C)C)NC(=O)[C@H](CC(C)C)NC(=O)[C@H](CCCCN)NC(=O)[C@H](CCCNC(=N)N)NC(=O)[C@H](C)NC(=O)[C@H](CO)NC(=O)[C@H](CC(C)C)NC(=O)[C@H](CCC(N)=O)NC(=O)[C@H](CC)NC(=O)[C@H](CC(C)C)NC(=O)[C@@H](NC(=O)[C@H](CCCCN)NC(=O)[C@H](CCCNC(=N)N)NC(=O)[C@H](Cc1ccc(O)cc1)NC(=O)[C@H](CO)NC(=O)[C@H](CC(N)=O)NC(=O)[C@@H](NC(=O)[C@H](Cc1ccc(Cl)cc1)NC(=O)[C@@H](NC(=O)[C@H](C)NC(=O)[C@H](CC(=O)O)NC(=O)[C@@H](CCCNC(=N)N)NC(=O)[C@H](Cc1ccc(O)cc1)NC(=O)CCBr)[C@@H](C)CC)[C@@H](C)O)C(C)C)[C@@H](C)CC)C(=O)N[C@@H](CO)C(=O)NCCCCNC(=N)N` [Peptide 20] (X1-Y[dR]DAI[Phe(4-Cl)]TNSYRKVL[Abu]QLSARKLLQDI[Nle]S-Agmatine; N-terminus assumed): the figures for the “Inhibition of GH release (%) 0 min” value in assay [2] (dose 10 nM), in assay [2] (dose 30 nM) and in assay [2] (dose 100 nM) were 56.2%, 58% and 86.4%, respectively. Besides, the figures for the “Inhibition of GH release (%) 30 min” value in assay [2] (dose 10 nM), in assay [2] (dose 30 nM) and in assay [2] (dose 100 nM) were 35.2%, 19.3% and 75%, respectively. In addition, the “Inhibition of GH release (%) 60 min” value in assay [2] (dose 10 nM) is 51.8%; in assay [2] (dose 30 nM) it was 35.3%; in assay [2] (dose 100 nM), 62.8%. In addition, the “R.A. (relative affinity compared to the Standard antagonist)” value in assay [1] (ratio of Ki values, Standard = 1) is reported as 3.27.
Turning to “GH-RH(1-27)NH2 (YADAIFTNSYRKVLGQLSARKLLQDIM-NH2; UniProt P01286 32-58, looked up, fragment) [shorter GH-RH analogue]”, the “bioactivity (in words)” value in assay [3] is on record as “substantially lower bioactivity”.
On to “GH-RH(1-28)NH2 (YADAIFTNSYRKVLGQLSARKLLQDIMS-NH2; UniProt P01286 32-59, looked up, fragment) [shorter GH-RH analogue]”, for which the “bioactivity (in words)” value in assay [3] is “substantially lower bioactivity”.
Consider “[Ac-Tyr^1 ]GH-RH (Ac-YADAIFTNSYRKVLGQLSARKLLQDIMSRQQGESNQERGARARL; ends and bridges not checked; UniProt P01286 32-75, looked up)”, for which the “GH releasing activity relative to GH-RH” value in assay [3] is given as 2-3%.
For [D-Tyr^1 ]GH-RH, the “GH releasing activity relative to GH-RH” value in assay [3] was 2-3%.
For the molecule “hGH-RH(2-44) (ADAIFTNSYRKVLGQLSARKLLQDIMSRQQGESNQERGARARL; ends and bridges not checked; UniProt P01286 33-75, looked up, fragment) [GH-RH without its N-terminus residue]”, in assay [3], the “GH releasing activity relative to GH-RH” value is 0.1%.

The values above are taken from patent US5550212A, “Analogues of hGH-RH(1-29)NH2 having antagonistic activity” (The Administrators of the Tulane Educational Fund, priority 1993, dated 1996).
